# Laboratory results: patent publication US8026378B2, “Glyceryl ether compounds and their use” (Segetis, Inc., priority 2005, dated 2011)
# Test: Emulsifying properties: hexane/water emulsions
# Format: physicochemical
# Conditions: for emulsifying properties on addition of salt: addition of 0.2% calcium chloride or magnesium chloride, mixture of isomers; for stability of emulsions of water in hexane: aqueous solutions of the mixture of isomers
# From the text: […] The emulsifying properties of compounds (12a) and (12b) were not disrupted by the addition of 0.2% calcium chloride or magnesium chloride.
SMILES,emulsifying properties on addition of salt,stability of emulsions of water in hexane
CCCCCCCCC(O)COCC(O)CO (stereo not drawn) [Compound 12a],not disrupted,
CCCCCCCCC(CO)OCC(O)CO (stereo not drawn) [Compound 12b],not disrupted,
CCCCCCCCCCCCCCCCC(O)COCC(O)CO (stereo not drawn) [Compound 13a],not substantially disrupted,able to support stability of emulsions of water in hexane
CCCCCCCCCCCCCCCCC(CO)OCC(O)CO (stereo not drawn) [Compound 13b],not substantially disrupted,able to support stability of emulsions of water in hexane
